Species on record: Rattus norvegicus
Test: DrugMatrix - Regimen: Daily Repeat
Assay type: toxicity, organism-based, Sprague-Dawley
Set-up: regimen Daily Repeat, gender Male, age 6-8 weeks
Settings: in vivo, po, route oral GAVAGE, vehicle 100 % WATER; for ABSOLUTE BASOPHIL / ABSOLUTE EOSINOPHIL / ABSOLUTE LYMPHOCYTE / ABSOLUTE MONOCYTE / ABSOLUTE SEGMENTED NEUTROPHIL / BASOPHIL / EOSINOPHIL / ERYTHROCYTE COUNT / HEMATOCRIT / HEMOGLOBIN / LEUKOCYTE COUNT / LYMPHOCYTE / MEAN CORPUSCULAR HEMOGLOBIN / MEAN CORPUSCULAR HEMOGLOBIN CONCENTRATION / MEAN CORPUSCULAR VOLUME / MONOCYTE / NEUTROPHIL / NUCLEATED RED BLOOD CELLS / PLATELET COUNT: tissue Blood
[1] = […], 72 h, dose 7.5 mg/Kg, dose level Low, time 3 day
[2] = […], 72 h, tissue Plasma, dose 7.5 mg/Kg, dose level Low, time 3 day
[3] = […], 120 h, dose 7.5 mg/Kg, dose level Low, time 5 day
[4] = […], 120 h, tissue Plasma, dose 7.5 mg/Kg, dose level Low, time 5 day

With `CNC1=Nc2ccc(Cl)cc2C(c2ccccc2)=[N+]([O-])C1` [CHLORDIAZEPOXIDE] the “URIC ACID” value (0 mg/kg, 120 h, tissue Plasma, dose level Control, time 5 day) was 1.82 mg/dL, the “ABSOLUTE BASOPHIL” value [1] was 0 CELLS/uL and the “ABSOLUTE EOSINOPHIL” value [1] was 54 CELLS/uL. For the same compound, the “ABSOLUTE LYMPHOCYTE” value [1] was 12748.67 CELLS/uL, the “ABSOLUTE MONOCYTE” value [1] was 258 CELLS/uL and the “ABSOLUTE SEGMENTED NEUTROPHIL” value [1] was 2072.67 CELLS/uL. For the same compound, the BASOPHIL [1] was 0%, the EOSINOPHIL [1] was 0.33% and the “ERYTHROCYTE COUNT” value [1] was 5.45 x10E6/uL. For the same compound, the HEMATOCRIT [1] was 34.1%, the HEMOGLOBIN [1] was 13.23 G/DL and the “LEUKOCYTE COUNT” value [1] was 15.13 x10E3/uL. For the same compound, the LYMPHOCYTE [1] was 84.33%, the “MEAN CORPUSCULAR HEMOGLOBIN” value [1] was 24.3 pg and the “MEAN CORPUSCULAR HEMOGLOBIN CONCENTRATION” value [1] was 38.8 G/DL. For the same compound, the “MEAN CORPUSCULAR VOLUME” value [1] was 62.57 fL, the MONOCYTE [1] was 1.67% and the NEUTROPHIL [1] was 13.67%. The “NUCLEATED RED BLOOD CELLS” value [1] was 0.33 /100WBC, the “PLATELET COUNT” value [1] was 1319 x10E3/uL and the “ALANINE AMINOTRANSFERASE” value [2] was 50.33 u/L. For the same compound, the “ALKALINE PHOSPHATASE” value [2] was 379.67 u/L, the “ASPARTATE AMINOTRANSFERASE” value [2] was 95 u/L and the “BLOOD UREA NITROGEN” value [2] was 15.67 mg/dL. The “CARBON DIOXIDE” value [2] was 26 mmol/L, the CHLORIDE [2] was 101 MEQ/L and the CHOLESTEROL [2] was 60.33 mg/dL. For the same compound, the “CREATINE PHOSPHOKINASE” value [2] was 360.33 u/L, the CREATININE [2] was 0.17 mg/dL and the GLUCOSE [2] was 162.33 mg/dL. The “LACTATE DEHYDROGENASE” value [2] was 326.33 u/L, the LIPASE [2] was 8.67 u/L and the PHOSPHORUS [2] was 12.63 mg/dL. For the same compound, the POTASSIUM [2] was 7.24 MEQ/L, the SODIUM [2] was 142.77 MEQ/L and the “TOTAL BILIRUBIN” value [2] was 0.27 mg/dL. For the same compound, the “TOTAL PROTEIN” value [2] was 5.87 G/DL, the “URIC ACID” value [2] was 2 mg/dL and the “ABSOLUTE BASOPHIL” value [3] was 0 CELLS/uL. The “ABSOLUTE EOSINOPHIL” value [3] was 0 CELLS/uL, the “ABSOLUTE LYMPHOCYTE” value [3] was 13599 CELLS/uL and the “ABSOLUTE MONOCYTE” value [3] was 187.67 CELLS/uL. The “ABSOLUTE SEGMENTED NEUTROPHIL” value [3] was 813.33 CELLS/uL, the BASOPHIL [3] was 0% and the EOSINOPHIL [3] was 0%. The “ERYTHROCYTE COUNT” value [3] was 5.46 x10E6/uL, the HEMATOCRIT [3] was 34.73% and the HEMOGLOBIN [3] was 13.83 G/DL. The “LEUKOCYTE COUNT” value [3] was 14.6 x10E3/uL, the LYMPHOCYTE [3] was 93% and the “MEAN CORPUSCULAR HEMOGLOBIN” value [3] was 25.37 pg. The “MEAN CORPUSCULAR HEMOGLOBIN CONCENTRATION” value [3] was 39.83 G/DL, the “MEAN CORPUSCULAR VOLUME” value [3] was 63.7 fL and the MONOCYTE [3] was 1.33%. The NEUTROPHIL [3] was 5.67%, the “NUCLEATED RED BLOOD CELLS” value [3] was 0 /100WBC and the “PLATELET COUNT” value [3] was 1349.33 x10E3/uL. The “ALKALINE PHOSPHATASE” value [4] was 303.33 u/L, the “ASPARTATE AMINOTRANSFERASE” value [4] was 68.67 u/L and the “BLOOD UREA NITROGEN” value [4] was 17.67 mg/dL. The “CARBON DIOXIDE” value [4] was 27.33 mmol/L, the CHLORIDE [4] was 101.33 MEQ/L and the CHOLESTEROL [4] was 63.67 mg/dL. For the same compound, the “CREATINE PHOSPHOKINASE” value [4] was 199.33 u/L, the CREATININE [4] was 0.15 mg/dL and the GLUCOSE [4] was 159.33 mg/dL. The “LACTATE DEHYDROGENASE” value [4] was 110 u/L, the LIPASE [4] was 8.67 u/L and the PHOSPHORUS [4] was 11.87 mg/dL. For the same compound, the POTASSIUM [4] was 6.75 MEQ/L, the SODIUM [4] was 144.03 MEQ/L and the “TOTAL BILIRUBIN” value [4] was 0.23 mg/dL. For the same compound, the “TOTAL PROTEIN” value [4] was 5.83 G/DL and the “URIC ACID” value [4] was 1.47 mg/dL.
